Measured values as given in DBAASP.
Converted amounts (≈) assume the structure as drawn. Values belong to the compound of their own block, whether it stands above or below them.

How the values were obtained:
Assay in all cases: ≥ marks a high value that may be exact or a test limit, other limits are often not marked, values filed in µg/mL are converted to µM
[1] = tested on: Acinetobacter baumannii KCTC 2508
Acinetobacter baumannii = tested on: Acinetobacter baumannii
[2] = tested on: Fusarium oxysporum DSM Z62306
[3] = tested on: Botrytis cinerea DSM Z877
Staphylococcus aureus = tested on: Staphylococcus aureus
Pseudomonas putida = tested on: Pseudomonas putida
Bacillus subtilis = tested on: Bacillus subtilis
Cryptococcus neoformans = tested on: Cryptococcus neoformans
Candida albicans = tested on: Candida albicans
Salmonella typhimurium = tested on: Salmonella typhimurium
Serratia sp. = tested on: Serratia sp.
Escherichia coli = tested on: Escherichia coli
Saccharomyces cerevisiae = tested on: Saccharomyces cerevisiae
Streptococcus mutans = tested on: Streptococcus mutans
[4] = tested on: Escherichia coli ATCC 25922
Escherichia coli 170 = tested on: Escherichia coli 170
[5] = tested on: Enterobacter cloacae 6780
Escherichia coli 4530 = tested on: Escherichia coli 4530
[6] = tested on: Klebsiella pneumoniae 1625
[7] = tested on: Pseudomonas aeruginosa 4677
[8] = tested on: Enterobacter cloacae 2524
[9] = tested on: Klebsiella pneumoniae 913
Staphylococcus aureus 10 = tested on: Staphylococcus aureus 10
Staphylococcus aureus 37 = tested on: Staphylococcus aureus 37
Escherichia coli 37 = tested on: Escherichia coli 37
[10] = tested on: Pseudomonas aeruginosa ATCC 27853
[11] = tested on: Klebsiella pneumoniae ATCC 700603
[12] = tested on: Pseudomonas aeruginosa CMCCB 1010
Pseudomonas aeruginosa = tested on: Pseudomonas aeruginosa
[13] = tested on: Candida albicans ATCC 90028
Escherichia coli 117 = tested on: Escherichia coli 117
[14] = tested on: Enterococcus faecalis ATCC 29212
[15] = tested on: Staphylococcus aureus ATCC 25923
[16] = tested on: Candida albicans ATCC 2002
Mannheimia haemolytica = tested on: Mannheimia haemolytica
Histophilus somni = tested on: Histophilus somni
Pasteurella multocida = tested on: Pasteurella multocida
Glaesserella parasuis = tested on: Glaesserella parasuis
[17] = tested on: Glaesserella parasuis ATCC 19417
[18] = tested on: Staphylococcus aureus ATCC 29213
[19] = tested on: Candida albicans ATCC 37092
[20] = tested on: Staphylococcus aureus FDA 209P
[21] = tested on: Escherichia coli IFO 3972

SMILES: CSCC[C@H](NC(=O)[C@@H](NC(=O)[C@@H](NC(=O)[C@H](CCCCN)NC(=O)[C@H](C)N)C(C)C)[C@@H](C)O)C(=O)N[C@H](C(=O)N[C@@H](CS)C(=O)N[C@@H](CO)C(=O)N[C@@H](C)C(=O)N[C@@H](CO)C(=O)O)[C@@H](C)O [AKVTMTCSAS]
- MIC [2]: ≥ 100 µM
- MIC [3]: ≥ 120 µM

SMILES: CC[C@H](C)[C@@H]1NC(=O)CNC(=O)[C@H](CCCCN)NC(=O)[C@H](CC(N)=O)NC(=O)[C@H](CCCN=C(N)N)NC(=O)[C@H](C(C)C)NC(=O)[C@@H](NC(=O)[C@H](CO)NC(=O)[C@@H](NC(=O)[C@@H]2CCCN2C(=O)[C@@H](N)CC(N)=O)C(C)C)CSSC[C@@H]2NC(=O)[C@H](CCCCN)NC(=O)[C@H](C(C)C)NC(=O)[C@H](C)NC(=O)[C@H](CCCN=C(N)N)NC(=O)CNC(=O)[C@H](C(C)C)NC(=O)[C@@H]3CSSC[C@H](NC1=O)C(=O)N[C@@H](C(C)C)C(=O)N1CCC[C@H]1C(=O)N[C@@H]([C@@H](C)CC)C(=O)N[C@@H](CCCN=C(N)N)C(=O)N[C@@H](CSSC[C@@H](C(=O)N[C@@H](CCCN=C(N)N)C(=O)N[C@@H](CCCCN)C(=O)N[C@@H](CCCCN)C(=O)O)NC2=O)C(=O)N1CCC[C@H]1C(=O)NCC(=O)N[C@@H](CC(N)=O)C(=O)N[C@@H](CCSC)C(=O)N[C@@H](CCCCN)C(=O)N[C@@H](CCC(N)=O)C(=O)N[C@@H]([C@@H](C)CC)C(=O)NCC(=O)N[C@@H]([C@@H](C)O)C(=O)N3 [NPVSCVRNKGICVPIRCPGNMKQIGTCVGRAVKCCRKK]
- MIC (Mannheimia haemolytica): 0.753 µM (≈ 3.1 µg/mL)
- MIC (Histophilus somni): 1.14 µM (≈ 4.69 µg/mL)
- MIC (Pasteurella multocida): 0.558 µM (≈ 2.3 µg/mL)

SMILES: C[C@H](NC(=O)[C@H](Cc1ccccc1)NC(=O)[C@H](CS)NC(=O)[C@H](Cc1c[nH]c2ccccc12)NC(=O)[C@H](CCCN=C(N)N)NC(=O)[C@@H](N)CC(N)=O)C(=O)NCC(=O)N[C@@H](CC(=O)O)C(=O)N[C@@H](CC(=O)O)C(=O)O [NRWCFAGDD]
- MIC (Glaesserella parasuis): 13.1 µM (≈ 14.1 µg/mL)
- MIC [17]: 18.5 µM (≈ 20 µg/mL)

SMILES: CC(C)C[C@H](NC(=O)[C@@H]1CCCN1C(=O)[C@H](CCCN=C(N)N)NC(=O)[C@@H]1CCCN1)C(=O)N1CCC[C@H]1C(=O)N[C@@H](Cc1ccccc1)C(=O)N1CCC[C@H]1C(=O)N[C@@H](CCCN=C(N)N)C(=O)N1CCC[C@H]1C(=O)NCC(=O)O [PRPLPFPRPG]
- MIC [4]: > 500 µM
- MIC [18]: > 500 µM
- MIC [19]: ≥ 500 µM

SMILES: CC(C)C[C@H](NC(=O)[C@H](Cc1c[nH]c2ccccc12)NC(=O)[C@@H](NC(=O)[C@H](Cc1c[nH]c2ccccc12)NC(=O)[C@H](Cc1cnc[nH]1)NC(=O)[C@@H](N)Cc1c[nH]c2ccccc12)[C@@H](C)O)C(=O)O [WHWTWL]
- MIC [20]: ≥ 500 µM
- MIC [21]: ≥ 500 µM

More lines, now with the values ahead:

- MIC [1]: 6.25 µM (≈ 14.4 µg/mL)
- MIC (Acinetobacter baumannii): 6.25 µM (≈ 14.4 µg/mL)
SMILES: CC[C@H](C)[C@H](NC(=O)CNC(=O)[C@H](CC(C)C)NC(=O)[C@H](CCCN=C(N)N)NC(=O)[C@H](CCCCN)NC(=O)[C@H](Cc1ccccc1)NC(=O)[C@@H](NC(=O)[C@H](CCCCN)NC(=O)[C@H](CCCCN)NC(=O)[C@H](C)N)C(C)C)C(=O)NCC(=O)N[C@@H](CCCCN)C(=O)N[C@@H](Cc1ccccc1)C(=O)N[C@@H](CC(C)C)C(=O)N[C@@H](Cc1cnc[nH]1)C(=O)N[C@@H](CO)C(=O)N[C@@H](C)C(=O)N[C@@H](CCCCN)C(=O)N[C@@H](CCCCN)C(=O)N[C@@H](Cc1ccccc1)C(N)=O [AKKVFKRLGIGKFLHSAKKF]

- MIC (Staphylococcus aureus): 28.7 µM (≈ 50 µg/mL)
- MIC (Pseudomonas putida): ≥ 57.4 µM
- MIC (Bacillus subtilis): 11.5 µM (≈ 20 µg/mL)
- MIC (Cryptococcus neoformans): 23 µM (≈ 40 µg/mL)
- MIC (Candida albicans): 57.4 µM (≈ 100 µg/mL)
- MIC (Salmonella typhimurium): 17.2 µM (≈ 30 µg/mL)
- MIC (Serratia sp.): 28.7 µM (≈ 50 µg/mL)
- MIC (Escherichia coli): 28.7 µM (≈ 50 µg/mL)
- MIC (Saccharomyces cerevisiae): 5.74 µM (≈ 10 µg/mL)
- MIC (Streptococcus mutans): 17.2 µM (≈ 30 µg/mL)
SMILES: CC[C@H](C)[C@H](NC(=O)[C@H](CO)NC(=O)[C@H](CCCCN)NC(=O)[C@H](Cc1ccccc1)NC(=O)[C@H](CCCCN)NC(=O)[C@H](CCCCN)NC(=O)[C@H](CC(C)C)NC(=O)[C@@H]1CCCN1C(=O)[C@@H](NC(=O)[C@H](CCCCN)NC(=O)[C@@H](NC(=O)[C@@H](NC(=O)[C@H](C)N)C(C)C)C(C)C)C(C)C)C(=O)N[C@@H](CCCN=C(N)N)C(=O)N[C@@H](CCC(=O)O)C(=O)O [AVVKVPLKKFKSIRE]

- MIC [4]: 12.5 µM (≈ 32.1 µg/mL)
- MIC (Escherichia coli 170): 1.56 µM (≈ 4 µg/mL)
- MIC [5]: ≥ 50 µM
- MIC (Escherichia coli 4530): ≥ 50 µM
- MIC [6]: 6.25 µM (≈ 16 µg/mL)
- MIC [7]: ≥ 50 µM
- MIC [8]: 3.12 µM (≈ 8.01 µg/mL)
- MIC (Acinetobacter baumannii): 4.42 µM (≈ 11.3 µg/mL)
- MIC [9]: ≥ 50 µM
SMILES: CC[C@H](C)[C@H](N)C(=O)N[C@@H](CCCCN)C(=O)N[C@@H](CO)C(=O)N[C@H](C(=O)N[C@@H](C)C(=O)N[C@@H](CO)C(=O)N[C@@H](CCCCN)C(=O)N[C@H](C(=O)N[C@@H](C)C(=O)N[C@@H](CC(N)=O)C(=O)N[C@H](C(=O)N[C@H](C(=O)N[C@@H](CCC(N)=O)C(=O)N[C@@H](CCCCN)C(=O)N[C@@H](CC(C)C)C(=O)N[C@@H](CCCCN)C(=O)N[C@@H](CCCN=C(N)N)C(=O)N[C@@H](CCCCN)C(=O)N[C@@H](C)C(=O)N[C@@H](CCCCN)C(=O)N[C@@H](CC(N)=O)C(=O)N[C@@H](C)C(=O)N[C@H](C(=O)N[C@@H](C)C(=O)O)C(C)C)C(C)C)[C@@H](C)O)C(C)C)[C@@H](C)CC [IKSIASKVANTVQKLKRKAKNAVA]

- MIC (Staphylococcus aureus 10): 28 µM (≈ 40 µg/mL)
- MIC (Staphylococcus aureus 37): 6.99 µM (≈ 10 µg/mL)
- MIC (Escherichia coli 37): ≥ 55.9 µM
- MIC [10]: 55.9 µM (≈ 80 µg/mL)
- MIC [11]: 55.9 µM (≈ 80 µg/mL)
- MIC [12]: ≥ 55.9 µM
- MIC (Pseudomonas aeruginosa): 6.99 µM (≈ 10 µg/mL)
- MIC [13]: 14 µM (≈ 20 µg/mL)
- MIC (Escherichia coli 117): 28 µM (≈ 40 µg/mL)
- MIC [14]: 3.49 µM (≈ 5 µg/mL)
- MIC [15]: 6.99 µM (≈ 10 µg/mL)
- MIC [16]: ≥ 55.9 µM
SMILES: CC[C@H](C)[C@H](N)C(=O)N[C@@H](CC(N)=O)C(=O)N[C@@H](CC(C)C)C(=O)N[C@@H](CCCCN)C(=O)N[C@@H](C)C(=O)N[C@H](C(=O)N[C@@H](C)C(=O)N[C@@H](C)C(=O)N[C@@H](CC(C)C)C(=O)N[C@@H](C)C(=O)N[C@@H](CCCN=C(N)N)C(=O)N[C@@H](CC(N)=O)C(=O)N[C@@H](Cc1ccc(O)cc1)C(=O)O)[C@@H](C)CC [INLKAIAALARNY]
